We go through 1 compound from ChEMBL document CHEMBL5727102, “Compounds and methods for inhibiting Cif virulence factor” (2019).

The assay is described as follows: Biochemical Characterization of Cif Inhibitors: The first step in characterizing the two compounds identified by high throughput screening was to verify that the inhibition was reproducible using fresh preparations. Chemical libraries are often stored for extended periods of time, which can lead to breakdown products contributing to the assay outcome. While the inhibition observed with a fresh ….

For orientation: IC50 means the concentration that inhibits the measured activity by half. A lower IC50 goes with inhibition by little substance. As to `NC(Cc1cc(I)c(Oc2cc(I)c(O)c(I)c2)c(I)c1)C(=O)O` (stereo unspecified) [THYROXINE], the IC50 is > 100 µM.
